Assay results from patent US10752640B2, “Compounds active towards bromodomains” (NUEVOLUTION A/S, priority 2014, dated 2020).

molecular target: BRD4 protein (Homo sapiens, UniProt O60885); assay: FRET assay, half maximal inhibitory concentration (IC50); assay type: binding; conditions: BRD4 protein 50 nM, Biotin-H4KAc4 peptide 12.5 nM; A Further List of Classification
Method in brief: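 Acetylated histone H4 peptide binding (biotin-H4KAc4, 12.5 nM final) to BRD4 (50 nM final) detected by TR-FRET between streptavidin cryptate (2.4 nM) and GST-XL665 antibody (10 nM) in KF/BSA. Buffer: HEPES pH 7.5, NaCl, CHAPS. Compound dilutions from 50 μM in 12.5% DMSO were preincubated with protein for 30 min. Variable-slope IC50.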

Structure (SMILES) | IC50
CN1C(=O)CCc2cc(NC(=O)c3ccccc3N3CCOCC3)ccc21 [S1, N-(1-methyl-2-oxo-3,4-dihydroquinolin-6-yl)-2-morpholino-benzamide] | 1000 to 10000 nM
Cc1cc(O)nc2ccc(NC(=O)c3ccccc3N3CCOCC3)cc12 [S2, N-(2-hydroxy-4-methyl-6-quinolyl)-2-morpholino-benzamide] | 200 to 500 nM
Cc1ccc(C(=O)Nc2ccc3c(c2)CCC(=O)N3C)cc1S(=O)(=O)NC1CCCC1 [S3, 3-(cyclopentylsulfamoyl)-4-methyl-N-(1-methyl-2-oxo-3,4-dihydroquinolin-6-yl)benzamide] | 1000 to 10000 nM
CN1C(=O)CCc2cc(NC(=O)c3cccnc3N3CCOCC3)ccc21 [S4, N-(1-methyl-2-oxo-3,4-dihydroquinolin-6-yl)-2-morpholino-pyridine-3-carboxamide] | 1000 to 10000 nM
CN1CCN(c2ccccc2C(=O)Nc2ccc3c(c2)OCC(=O)N3)CC1 [S5, 2-(4-methylpiperazin-1-yl)-N-(3-oxo-4H-1,4-benzoxazin-7-yl)benzamide] | > 10000 nM
CN1CCN(c2ccccc2C(=O)Nc2ccc3c(c2)CCC(=O)N3C)CC1 [S6, N-(1-methyl-2-oxo-3,4-dihydroquinolin-6-yl)-2-(4-methylpiperazin-1-yl)benzamide] | > 10000 nM
CN1CCN(c2ccccc2C(=O)Nc2ccc3c(c2)OCC(=O)N3C)CC1 [S7, N-(4-methyl-3-oxo-1,4-benzoxazin-7-yl)-2-(4-methylpiperazin-1-yl)benzamide] | > 10000 nM
CN1C(=O)CCc2cc(NC(=O)c3ccccc3N3CCN(c4cnccn4)CC3)ccc21 [S8, N-(1-methyl-2-oxo-3,4-dihydroquinolin-6-yl)-2-(4-pyrazin-2-ylpiperazin-1-yl)benzamide] | > 10000 nM
CN1C(=O)CCc2cc(NC(=O)c3cc([N+](=O)[O-])ccc3N3CCOCC3)ccc21 [S9, N-(1-methyl-2-oxo-3,4-dihydroquinolin-6-yl)-2-morpholino-5-nitro-benzamide] | > 10000 nM

same assay, conditions: BRD4 protein 50 nM, Biotin-H4KAc4 peptide 12.5 nM; List of Classification

Structure (SMILES) | IC50
Cc1cc(O)nc2ccc(NC(=O)c3cc(-c4nnn[nH]4)ncc3N3CCCC3)cc12 [Compound-203, N-(2-hydroxy-4-methylquinolin-6-yl)-5-(pyrrolidin-1-yl)-2-(1H-tetrazol-5-yl) isonicotinamide] | < 200 nM
Cc1cc(O)nc2ccc(NC(=O)c3cc(C(C)O)ccc3N3CCCC3c3ccccn3)cc12 (stereo not drawn) [Compound-206, N-(2-hydroxy-4-methylquinolin-6-yl)-5-(1-hydroxyethyl)-2-(2-(pyridin-2-yl)pyrrolidin-1-yl)benzamide] | < 200 nM
CC(=O)c1cc(C(=O)Nc2ccc3nc(O)cc(C)c3c2)c(N2CCOCC2)cn1 [Compound-207, 2-acetyl-N-(2-hydroxy-4-methylquinolin-6-yl)-5-morpholinoisonicotinamide] | < 200 nM
Cc1cc(O)nc2ccc(NC(=O)c3cc(C(C)O)ncc3N3CCOCC3)cc12 (stereo not drawn) [Compound-208, N-(2-hydroxy-4-methylquinolin-6-yl)-2-(1-hydroxyethyl)-5-morpholinoisonicotinamide] | < 200 nM
CC(=O)c1cc(C(=O)Nc2ccc3nc(O)cc(C)c3c2)c(N2CCC(F)C2)cn1 (stereo not drawn) [Compound-209] | < 200 nM
Cc1cc(O)nc2ccc(NC(=O)c3cc(C(C)O)ncc3N3CCC(F)C3)cc12 (stereo not drawn) [Compound-210, 5-(3-fluoropyrrolidin-1-yl)-N-(2-hydroxy-4-methylquinolin-6-yl)-2-(1-hydroxyethyl) isonicotinamide] | < 200 nM
Cc1cc(O)nc2ccc(NC(=O)c3cc(C#N)ncc3N3CCCC3CN(C)C)cc12 (stereo not drawn) [Compound-211] | 200 to 500 nM
CC(=O)c1cc(C(=O)Nc2ccc3nc(O)cc(C)c3c2)c(N2CCCC2CN(C)C)cn1 (stereo not drawn) [Compound-212, 2-acetyl-5-(2-((dimethylamino)methyl)pyrrolidin-1-yl)-N-(2-hydroxy-4-methylquinolin-6-yl)isonicotinamide] | < 200 nM
Cc1cc(O)nc2ccc(NC(=O)c3cc(C(C)O)ncc3N3CCCC3CN(C)C)cc12 (stereo not drawn) [Compound-213, 5-(2-((dimethylamino)methyl)pyrrolidin-1-yl)-N-(2-hydroxy-4-methylquinolin-6-yl)-2-(1-hydroxyethyl)isonicotinamide] | < 200 nM
